Test results from US10172957B2, “Acid-labile lipophilic prodrugs of cancer chemotherapeutic agents” (priority 2011, dated 2019).

Legend:
[1] = system: SK-N-AS cells (MDR− Neuroblastoma); assay: MTS proliferation assay using SK-N-AS cells; assay type: cell-based; settings: Homo sapiens, SK-N-AS, read-out: IC50 in SK-N-AS
Experimental: SK-N-AS cells were plated in appropriate growth medium at 5×10^3 per well in 100 μL in 96 well tissue culture plates, Falcon, one plate for each drug to be tested. Column 1 was blank; it contained medium, but no cells. The plates were incubated overnight at 37° C. in 5% CO2 to allow attachment.
Drug diluted in culture media was added to the cells at a concentration of 0.005 nM to 10 μM, in quadruplicate. After 48-72 hours of drug exposure, the MTS agent was added to all wells and incubated 1-6 hrs (37° C., 5% CO2), depending on cell type, as per CellTiter 96® AQueous Non-Radioactive Cell Proliferation Assay (MTS), Promega. Plates were processed using a Bio-Tek Synergy HT Multi-detection microtiter plate reader at 490 nanometer wavelength and data were processed with KC4V.3 software. Data plots of drug concentration vs. absorbance were plotted and the concentration resulting in 50% inhibition (IC50) was extrapolated for each of the tested compounds.
As summarized in Table 1, the IC50 value for each tested compound in the SK-N-AS cell line was determined. The clinical comparator drug, paclitaxel, was included in the experiment to allow comparison of the results of the candidate compounds to a clinically relevant standard in the taxane class.

[2] = Stability in mouse plasma when added in a lipid emulsion (Liposyn); assay type: in vitro ADME; settings: 37° C.
Experimental: (§1) HPLC grade Methanol from Fisher (Fair lawn, NJ, USA). Part No: A452-4 (074833). HPLC grade Water from Fisher (Fair lawn, NJ, USA). Part No: W5-4 (073352). Drug-free mouse, rat and human plasmas were purchased from Innovative Research Inc. (Southfield, Mich., USA). LIPOSYN® I.V. (30% soybean oil and egg yolk phospholipids, Abbott Laboratories) Fat Emulsion from Hospira, Inc. (Lake Forest, Ill.).
(§2) Chromatographic separation of the compounds was performed on a Waters Acquity UPLC™ using a BEH C18 column (1.7 μm, 2.1×50 mm). The mobile phase consisted of Methanol: 0.1% Formic acid (80:20). The flow rate was 0.3 ml/min; the sample injection volume was 5 μL, resulting in a 3 minute run time.
(§3) The MS instrumentation consisted of a Waters Micromass Quattro Micro™ triple-quadrupole system (Manchester, UK). The MS system was controlled by a 4.0 version of MassLynx software. Ionization was performed in the positive electrospray ionization mode. MS/MS conditions were the following: capillary voltage 3.02 kV; cone voltage 50 v; extractor voltage 5 v; and RF lens voltage 0.5 v. The source and desolvation temperatures were 100° C. and 400° C. respectively, and the desolvation and cone gas flow were 400 and 30 L/hr, respectively.
(§4) The selected mass-to-charge (m/z) ratio transitions of the ART 198 used in the selected ion monitoring (SIM) were: for ART 198, 617 (M+K)^+, for ART 273, 589 (M+K)^+, for ART 488, 913 (M+Na)^+, and for ART 489, 957 (M+Na)^+. The dwell time was set at 200 msec. MS conditions were optimized using direct infusion of standard solutions prepared in methanol and delivered by a syringe pump at a flow rate of 20 μL/min.
(§5) Samples of 100 μL were collected at time points of 0, 15, 30, 45, 60, 75, 90, 105, 120, 135, 150, 165, 180, 210, 240, 300, 360 and 480 minutes respectively and the reaction was terminated with methanol. In a separate set of experiments the acid labile, lipophilic molecular conjugates were dissolved in a small amount of ethanol and diluted into a lipid emulsion (Liposyn®) and added to mouse and human plasma before incubation and the hydrolysis of the conjugates was similarly measured. Collected plasma samples of 100 μL containing drug were placed in separate Eppendorf micro centrifuge tubes for processing. Methanol (200 μL) was added to extract the drug using the protein precipitation technique. The micro tubes were then vortex mixed for 10 minutes and centrifuged for 15 minutes at a speed of 10,000 rpm (Eppendorf 5415C centrifuge). The supernatant was collected and filtered using a 0.45 μm filter (Waters 13 mm GHP 0.45 μm) before analysis.
(§6) Samples were collected at various times and the percent remaining of the acid labile, lipophilic molecular conjugate of the cancer chemotherapeutic agent was determined along with the percent of the chemotherapeutic agent released from the hydrolysis of the conjugate.

[3] = Stability in human plasma when added in a lipid emulsion (Liposyn); assay type: in vitro ADME; settings: 37° C.
Experimental: as §1, §2, §3, §4, §5, §6

SMILES	percent remaining of initial drug ([2]; 0 min) [%]	percent remaining of initial drug ([2]; 15 min) [%]	percent remaining of initial drug ([2]; 30 min) [%]	percent remaining of initial drug ([2]; 45 min) [%]	percent remaining of initial drug ([2]; 60 min) [%]	percent remaining of initial drug ([2]; 75 min) [%]	percent remaining of initial drug ([2]; 90 min) [%]	percent remaining of initial drug ([2]; 105 min) [%]	percent remaining of initial drug ([2]; 120 min) [%]	percent remaining of initial drug ([2]; 135 min) [%]	percent remaining of initial drug ([2]; 150 min) [%]	percent remaining of initial drug ([2]; 165 min) [%]	percent remaining of initial drug ([2]; 180 min) [%]	percent remaining of initial drug ([2]; 210 min) [%]	percent remaining of initial drug ([2]; 240 min) [%]	percent remaining of initial drug ([2]; 300 min) [%]	percent remaining of initial drug ([2]; 360 min) [%]	percent remaining of initial drug ([3]; 0 min) [%]	percent remaining of initial drug ([3]; 15 min) [%]	percent remaining of initial drug ([3]; 30 min) [%]	other results
CCCCCCCCCCCCCCCC1OCC(COC(=O)O[C@@H]2C(=O)C=C(C)[C@@H]3C[C@H]4OC(=O)C(OC(=O)CC(O)(C(C)C)C(C)C)C5[C@@H](C)[C@@H](O)[C@@]6(O)OC[C@@]54C6[C@@]23C)O1 (some centres unmarked) [ART 488]	100	98.7	98.2	97.4	96.9	97.0	98.3	96.0	95.2	93.8	93.1	92.9	91.8	91.7	91.4	91.3	90.0	100	98.3	97.3	IC50 [1]: 0.33 ± 0.1 nM; percent remaining of initial drug ([3]; 45 min): 96.1%; percent remaining of initial drug ([3]; 60 min): 95.8%; percent remaining of initial drug ([3]; 75 min): 95.3%; percent remaining of initial drug ([3]; 90 min): 95.6%; percent remaining of initial drug ([3]; 105 min): 94.6%; percent remaining of initial drug ([3]; 120 min): 94.5%; percent remaining of initial drug ([3]; 135 min): 92.5%; percent remaining of initial drug ([3]; 150 min): 92.2%; percent remaining of initial drug ([3]; 165 min): 91.9%; percent remaining of initial drug ([3]; 180 min): 91.0%; percent remaining of initial drug ([3]; 210 min): 91.0%; percent remaining of initial drug ([3]; 240 min): 90.7%; percent remaining of initial drug ([3]; 300 min): 90.7%; percent remaining of initial drug ([3]; 360 min): 90.2%; percent remaining of initial drug ([3]; 480 min): 88.1%
CCCCCCCCCCCCCCCC1OCC(COC(=O)OC2=C(C)[C@@H]3C[C@H]4OC(=O)C(OC(=O)CC5(O)CCCCC5)[C@H]5[C@]6(C(=O)OC)OC[C@]45[C@H]([C@@H](O)[C@@H]6O)[C@@]3(C)CC2=O)O1 (some centres unmarked) [ART 489]	100	98.0	97.9	97.4	91.4	90.3	87.9	80.7	80.4	79.9	79.2	78.7	78.2	75.6	74.7	73.7	73.0	100	98.4	93.9	percent remaining of initial drug ([3]; 45 min): 92.7%; percent remaining of initial drug ([3]; 60 min): 88.2%; percent remaining of initial drug ([3]; 75 min): 87.9%; percent remaining of initial drug ([3]; 90 min): 87.5%; percent remaining of initial drug ([3]; 105 min): 86.4%; percent remaining of initial drug ([3]; 120 min): 86.4%; percent remaining of initial drug ([3]; 135 min): 84.7%; percent remaining of initial drug ([3]; 150 min): 84.6%; percent remaining of initial drug ([3]; 165 min): 83.7%; percent remaining of initial drug ([3]; 180 min): 82.9%; percent remaining of initial drug ([3]; 210 min): 82.0%; percent remaining of initial drug ([3]; 240 min): 81.4%; percent remaining of initial drug ([3]; 300 min): 80.2%; percent remaining of initial drug ([3]; 360 min): 78.2%; percent remaining of initial drug ([3]; 480 min): 76.6%
